Experimental data: publication PMC6154344, “Hibiscus sabdariffa L. and Its Bioactive Constituents Exhibit Antiviral Activity against HSV-2 and Anti-Enzymatic Properties against Urease by an ESI-MS Based Assay” (Molecules : A Journal of Synthetic Chemistry and Natural …, 2017)

Molecular target: Urease (Type III, from Canavalia ensiformis) (Canavalia ensiformis, UniProt P07374)
Experiment: ESI-MS (MRM) assay of urea depletion by purified urease, […] min pre-incubation with inhibitor
Format: biochemical

Urease (Type III, from Canavalia ensiformis), sequence (P07374 whole entry): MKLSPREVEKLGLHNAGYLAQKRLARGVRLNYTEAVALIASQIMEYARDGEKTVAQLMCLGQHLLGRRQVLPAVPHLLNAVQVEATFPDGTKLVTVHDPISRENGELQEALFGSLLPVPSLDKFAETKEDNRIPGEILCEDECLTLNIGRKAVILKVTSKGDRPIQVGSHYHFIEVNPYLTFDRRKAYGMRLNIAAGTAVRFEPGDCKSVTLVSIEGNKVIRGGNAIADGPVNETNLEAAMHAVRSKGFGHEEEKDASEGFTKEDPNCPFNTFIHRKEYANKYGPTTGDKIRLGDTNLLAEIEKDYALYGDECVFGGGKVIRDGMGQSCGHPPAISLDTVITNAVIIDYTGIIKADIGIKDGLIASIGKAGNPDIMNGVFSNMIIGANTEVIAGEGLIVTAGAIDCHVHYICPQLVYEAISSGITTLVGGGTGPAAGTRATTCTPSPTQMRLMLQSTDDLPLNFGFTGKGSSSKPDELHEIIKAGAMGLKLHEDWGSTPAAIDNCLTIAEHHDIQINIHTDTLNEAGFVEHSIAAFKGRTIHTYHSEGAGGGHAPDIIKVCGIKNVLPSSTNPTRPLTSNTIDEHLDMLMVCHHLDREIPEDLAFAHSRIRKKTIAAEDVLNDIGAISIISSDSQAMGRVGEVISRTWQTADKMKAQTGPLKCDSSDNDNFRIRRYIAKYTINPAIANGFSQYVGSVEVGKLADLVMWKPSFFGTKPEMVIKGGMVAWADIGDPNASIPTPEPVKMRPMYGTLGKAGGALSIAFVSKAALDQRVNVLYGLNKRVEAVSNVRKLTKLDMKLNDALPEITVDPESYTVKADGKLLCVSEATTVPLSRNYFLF

For `CC(=O)NO` [AHA, acetohydroxamic acid], the IC50 was 4.3 µM.
